{
  "source": "paper PMC10303036",
  "about": "(Journal of medicinal chemistry, 2022)",
  "key": {"E. coli ACC": {"target": "E. coli ACC (Escherichia coli, UniProt P0A9Q5+P0ABD5+P24182)", "sequence (P0ABD5 whole entry)": "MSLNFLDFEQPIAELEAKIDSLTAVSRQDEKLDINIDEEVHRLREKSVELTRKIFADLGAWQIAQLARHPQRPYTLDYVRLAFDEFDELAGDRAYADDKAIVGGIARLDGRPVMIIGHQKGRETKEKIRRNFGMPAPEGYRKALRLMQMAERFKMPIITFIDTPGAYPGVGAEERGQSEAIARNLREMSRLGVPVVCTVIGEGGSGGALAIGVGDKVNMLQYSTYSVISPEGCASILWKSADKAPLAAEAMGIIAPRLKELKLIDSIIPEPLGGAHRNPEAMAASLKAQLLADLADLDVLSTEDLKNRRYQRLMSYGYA", "sequence (P0A9Q5 whole entry)": "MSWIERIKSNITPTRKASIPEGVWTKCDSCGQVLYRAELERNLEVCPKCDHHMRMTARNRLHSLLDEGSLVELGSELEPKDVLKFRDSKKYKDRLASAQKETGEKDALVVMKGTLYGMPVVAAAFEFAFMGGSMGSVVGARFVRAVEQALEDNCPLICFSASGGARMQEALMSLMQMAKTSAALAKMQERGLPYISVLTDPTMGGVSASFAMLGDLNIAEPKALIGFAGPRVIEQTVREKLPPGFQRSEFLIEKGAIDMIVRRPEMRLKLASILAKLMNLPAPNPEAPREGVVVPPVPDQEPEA", "experiment": "ACC activity fluorescence polarization assay", "format": "biochemical", "details": "for IC50: IC50, fluorescence polarization assay, triplicate, ± SD; for Ki: Ki (apparent, Morrison equation), tight binding inhibitors (IC50 < 0.5 nM), fluorescence polarization assay"}, "E. coli ΔtolC": {"tested_on": "E. coli ΔtolC", "format": "cell-based"}, "ACC complex": {"target": "ACC complex (Escherichia coli, UniProt P0A9Q5+P0ABD5+P24182)", "sequence (P0A9Q5 whole entry)": "as above", "sequence (P0ABD5 whole entry)": "as the sequence (P0ABD5 whole entry) above", "experiment": "Spin-column LC-MS/MS competition assay", "format": "binding, E. coli", "details": "for dissociation from ACC with 1 and 3 together: 50 μM of 1 and 3 together added to ACC-inhibitor complex; for dissociation from ACC with 1 alone: 100 μM of 1 alone added to ACC-inhibitor complex"}, "[1]": {"details": "literature antibacterial activity, strain not stated; cited from earlier work"}},
  "note": "“Also recorded” adds a separate entry of the source. Like-named read-outs stand apart in the source and are kept apart here.",
  "data": [
    {"smiles": "C/C=C/C=C/C(=O)N[C@@H](CC(=O)N[C@H](C(=O)[C@@H]1C(=O)NC(=O)[C@H]1C)C(C)C)c1ccccc1", "note": "[Compound 3, moiramide B, reference compound]", "values": [
      {"measurement": "IC50", "setting": "E. coli ACC", "value": 5, "unit": "nM"}
    ]},
    {"smiles": "C#CCCCCOCCOCCOCCOCCOCCOCCOCCOCCOCCOCCOCCOCCOc1ccc(Br)c(-c2cc3cnc(N)nc3nc2N)c1Br", "note": "[Compound 9e, 6-(2,6-dibromo-3-(3,6,9,12,15,18,21,24,27,30,33,36-dodecaoxadotetracont-41-yn-1-yloxy)phenyl)pyrido[2,3-d]pyrimidine-2,7-diamine]", "values": [
      {"measurement": "MIC ΔtolC + PMBN", "setting": "E. coli ΔtolC; PMBN 6 μM (8 μg/mL)", "value": 12.5, "unit": "µM"}
    ]},
    {"smiles": "C#CCCCCOCCOCCOCCOCCOCCOCCOc1cc(Br)c(-c2cc3cnc(N)nc3nc2N)c(Br)c1", "note": "[Compound 9c-p, 6-(2,6-dibromo-4-(3,6,9,12,15,18-hexaoxatetracos-23-yn-1-yloxy)phenyl)pyrido[2,3-d]pyrimidine-2,7-diamine]", "values": [
      {"measurement": "IC50", "setting": "E. coli ACC", "value": "> 500", "unit": "nM"}
    ]},
    {"smiles": "CC(C)[C@H](NC(=O)C[C@H](NC(=O)CCCCCCCCCCn1cc(CCCCOCCOCCOCCOCCOCCOCCOc2ccc(Br)c(-c3cc4cnc(N)nc4nc3N)c2Br)nn1)c1ccccc1)C(=O)[C@@H]1C(=O)NC(=O)[C@H]1C", "note": "[Compound 17, 11-(4-(22-(2,4-dibromo-3-(2,7-diaminopyrido[2,3-d]pyrimidin-6-yl)phenoxy)-5,8,11,14,17,20-hexaoxadocos-1-yl)-1H-1,2,3-triazol-1-yl)-N-((1S)-3-(((2S)-3-methyl-1-((3R,4S)-4-methyl-2,5-dioxopyrrolidin-3-yl)-1-oxobutan-2-yl)amino)-3-oxo-1-phenylpropyl)undecanamide]", "values": [
      {"measurement": "MIC ΔtolC + PMBN", "setting": "E. coli ΔtolC; PMBN included", "value": 0.5, "unit": "µg/mL"},
      {"measurement": "MIC ΔtolC", "setting": "E. coli ΔtolC; without PMBN", "value": 4, "unit": "µg/mL"},
      {"measurement": "Ki", "setting": "E. coli ACC", "value": 0.2, "unit": "nM"},
      {"measurement": "dissociation from ACC with 1 and 3 together", "setting": "ACC complex", "value": "rapid dissociation"},
      {"measurement": "dissociation from ACC with 1 or 3 alone", "setting": "ACC complex; 100 μM (100-fold excess) of 1 or 3 alone added to ACC-inhibitor complex", "value": "unable to displace; also recorded: No dissociation"}
    ]},
    {"smiles": "Nc1ncc(C(=O)N(Cc2ccccc2)Cc2ccccc2)o1", "note": "[Compound 2]", "values": [
      {"measurement": "MIC", "setting": "[1]", "value": "> 64", "unit": "µg/mL"}
    ]},
    {"smiles": "CC(C)[C@H](NC(=O)C[C@H](NC(=O)CCCCCCCCCCn1cc(CCCCOCCOCCOCCOCCOCCOCCOc2cc(Br)c(-c3cc4cnc(N)nc4nc3N)c(Br)c2)nn1)c1ccccc1)C(=O)[C@@H]1C(=O)NC(=O)[C@H]1C", "note": "[Compound 17-p, 11-(4-(22-(3,5-dibromo-4-(2,7-diaminopyrido[2,3-d]pyrimidin-6-yl)phenoxy)-5,8,11,14,17,20-hexaoxadocos-1-yl)-1H-1,2,3-triazol-1-yl)-N-((1S)-3-(((2S)-3-methyl-1-((3R,4S)-4-methyl-2,5-dioxopyrrolidin-3-yl)-1-oxobutan-2-yl)amino)-3-oxo-1-phenylpropyl)undecanamide]", "values": [
      {"measurement": "Ki", "setting": "E. coli ACC", "value": 3.53, "unit": "nM"}
    ]},
    {"smiles": "CC(C)[C@H](NC(=O)C[C@H](NC(=O)CCCCCCCCCCn1cc(CCCCOCCOCCOCCOc2ccc(Br)c(-c3cc4cnc(N)nc4nc3N)c2Br)nn1)c1ccccc1)C(=O)[C@@H]1C(=O)NC(=O)[C@H]1C", "note": "[Compound 16, 11-(4-(4-(2-(2-(2-(2,4-dibromo-3-(2,7-diaminopyrido[2,3-d]pyrimidin-6-yl)phenoxy)ethoxy)ethoxy)ethoxy)butyl)-1H-1,2,3-triazol-1-yl)-N-((1S)-3-(((2S)-3-methyl-1-((3R,4S)-4-methyl-2,5-dioxopyrrolidin-3-yl)-1-oxobutan-2-yl)amino)-3-oxo-1-phenylpropyl)undecanamide]", "values": [
      {"measurement": "dissociation from ACC with 1 and 3 together", "setting": "ACC complex", "value": "rapid dissociation"},
      {"measurement": "dissociation from ACC with 1 alone", "setting": "ACC complex", "value": "little or no dissociation"}
    ]},
    {"smiles": "CC(C)[C@H](NC(=O)C[C@H](NC(=O)CCCCCCCCCCn1cc(CCCCOc2ccc(Br)c(-c3cc4cnc(N)nc4nc3N)c2Br)nn1)c1ccccc1)C(=O)[C@@H]1C(=O)NC(=O)[C@H]1C", "note": "[Compound 15, 11-(4-(4-(2,4-dibromo-3-(2,7-diaminopyrido[2,3-d]pyrimidin-6-yl)phenoxy)butyl)-1H-1,2,3-triazol-1-yl)-N-((1S)-3-(((2S)-3-methyl-1-((3R,4S)-4-methyl-2,5-dioxopyrrolidin-3-yl)-1-oxobutan-2-yl)amino)-3-oxo-1-phenylpropyl)undecanamide]", "values": [
      {"measurement": "dissociation from ACC with 1 and 3 together", "setting": "ACC complex", "value": "rapid dissociation"},
      {"measurement": "dissociation from ACC with 1 alone", "setting": "ACC complex", "value": "little or no dissociation"}
    ]}
  ]
}
